Measurements taken from PubChem BioAssay AID248 (DTP/NCI, 2004).
Where “and” joins values, the source holds several entries; their conditions need not be identical. Equal values may be shown once. Toxic doses and inconclusive results are not listed. No stated cut-off is given here; in the data, active means T/C of 150% or more; inactive means T/C below 125%.

Tested on: L1210 leukemia ip in BDF1 mice, survival T/C
Assay: NCI In Vivo Anticancer Drug Screen. Data for tumor model L1210 Leukemia (intraperitoneal) in B6D2F1 (BDF1) mice
Details: endpoint: mean survival time, higher = longer survival
Procedure, shortened: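 Antitumor effect is assessed in tumor-bearing animals. Survival in the compound arm is compared with a vehicle-dosed control arm and expressed as their quotient.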

[1] = dose: 100.0 mg/kg/injection, schedule: Q01DX009 (ip), vehicle: Klucel (hydroxypropylcellulose) (HPC)
[2] = dose: 100.0 mg/kg/injection, schedule: Q04DX002 (ip), vehicle: Klucel (hydroxypropylcellulose) (HPC)
[3] = dose: 100.0 mg/kg/injection, schedule: Q04DX003 (ip), vehicle: Klucel (hydroxypropylcellulose) (HPC)
[4] = dose: 200.0 mg/kg/injection, schedule: Q01DX009 (ip), vehicle: Klucel (hydroxypropylcellulose) (HPC)
[5] = dose: 200.0 mg/kg/injection, schedule: Q04DX002 (ip), vehicle: Klucel (hydroxypropylcellulose) (HPC)
[6] = dose: 200.0 mg/kg/injection, schedule: Q04DX003 (ip), vehicle: Klucel (hydroxypropylcellulose) (HPC)
[7] = dose: 400.0 mg/kg/injection, schedule: Q01DX009 (ip), vehicle: Klucel (hydroxypropylcellulose) (HPC)
[8] = dose: 400.0 mg/kg/injection, schedule: Q04DX002 (ip), vehicle: Klucel (hydroxypropylcellulose) (HPC)
[9] = dose: 400.0 mg/kg/injection, schedule: Q04DX003 (ip), vehicle: Klucel (hydroxypropylcellulose) (HPC)
[10] = dose: 50.0 mg/kg/injection, schedule: Q01DX001 (ip), vehicle: saline
[11] = dose: 100.0 mg/kg/injection, schedule: Q01DX001 (ip), vehicle: saline
[12] = dose: 200.0 mg/kg/injection, schedule: Q01DX001 (ip), vehicle: saline

Measured: T/C

COc1ccccc1C(=O)NC(=S)Nc1ccc(Cl)c(Cl)c1
inactive: [1] 96 % of control and 87 % of control | [2] 95 % of control and 88 % of control | [3] 94 % of control | dose: 200.0 mg/kg/injection, schedule: Q01DX001 (ip), vehicle: Klucel (hydroxypropylcellulose) (HPC) 86 % of control | [4] 96 % of control and 106 % of control | [5] 98 % of control and 91 % of control | [6] 92 % of control | dose: 400.0 mg/kg/injection, schedule: Q01DX001 (ip), vehicle: Klucel (hydroxypropylcellulose) (HPC) 107 % of control | [7] 102 % of control | [8] 98 % of control and 91 % of control | [9] 102 % of control

Brc1ccc(Nc2c3ccccc3nc3ccccc23)cc1
inactive: dose: 100.0 mg/kg/injection, schedule: Q04DX003 (ip), vehicle: saline with Tween-80 97 % of control | dose: 200.0 mg/kg/injection, schedule: Q04DX003 (ip), vehicle: saline with Tween-80 103 % of control

COC1OC(COC(C)=O)C(OC(C)=O)C2C1N2C(N)=S (stereo unspecified)
inactive: dose: 100.0 mg/kg/injection, schedule: Q04DX002 (ip), vehicle: saline 110 % of control | dose: 400.0 mg/kg/injection, schedule: Q04DX002 (ip), vehicle: saline 113 % of control

CCCCCCCCC(CO)(CCCCCCC)C(=O)O (stereo unspecified)
inactive: dose: 100.0 mg/kg/injection, schedule: Q04DX002 (ip), vehicle: saline with Tween-80 88 % of control | dose: 200.0 mg/kg/injection, schedule: Q04DX002 (ip), vehicle: saline with Tween-80 88 % of control

N/C(=N\N=C\c1ccccn1)c1ccccn1
inactive: dose: 10.0 mg/kg/injection, schedule: Q01DX001 (ip), vehicle: water 93 % of control

O=C1c2ccccc2C(=O)C2C3C=CC(CC3)C12 (stereo unspecified)
inactive: dose: 50.0 mg/kg/injection, schedule: Q01DX001 (ip), vehicle: carboxymethylcellulose (CMC) 100 % of control | dose: 100.0 mg/kg/injection, schedule: Q01DX001 (ip), vehicle: carboxymethylcellulose (CMC) 97 % of control | dose: 200.0 mg/kg/injection, schedule: Q01DX001 (ip), vehicle: carboxymethylcellulose (CMC) 97 % of control | dose: 400.0 mg/kg/injection, schedule: Q01DX001 (ip), vehicle: carboxymethylcellulose (CMC) 97 % of control

Cc1cc([N+](=O)[O-])c(Nc2ccc(C)c(Cl)c2)c([N+](=O)[O-])c1
inactive: [2] 93 % of control | [5] 91 % of control | [8] 96 % of control

CC(=O)Oc1ccc(N2CC=C(c3ccccc3)CC2)cc1
inactive: [2] 89 % of control | [5] 95 % of control

O=[N+]([O-])c1ccc(F)c(Cl)c1F
inactive: dose: 10.0 mg/kg/injection, schedule: Q04DX003 (ip), vehicle: Klucel (hydroxypropylcellulose) (HPC) 103 % of control | dose: 20.0 mg/kg/injection, schedule: Q04DX003 (ip), vehicle: Klucel (hydroxypropylcellulose) (HPC) 106 % of control | dose: 40.0 mg/kg/injection, schedule: Q04DX003 (ip), vehicle: Klucel (hydroxypropylcellulose) (HPC) 99 % of control

CC(=O)Nc1ccc(S(=O)(=O)Nc2ccccc2F)cc1
inactive: dose: 100.0 mg/kg/injection, schedule: Q01DX009 (ip), vehicle: saline 102 % of control | dose: 200.0 mg/kg/injection, schedule: Q01DX009 (ip), vehicle: saline 102 % of control | dose: 400.0 mg/kg/injection, schedule: Q01DX009 (ip), vehicle: saline 105 % of control

C/C(CCC1=CC=CC1=O)=N\NC(N)=O
inactive: dose: 100.0 mg/kg/injection, schedule: Q01DX001 (ip), vehicle: other 98 % of control

Cc1ccccc1NC(=O)NCCc1ccccc1
inactive: [1] 93 % of control | [3] 88 % of control | [4] 91 % of control | [6] 93 % of control | [7] 98 % of control | [9] 90 % of control

COc1ccccc1CN1CCCN(Cc2ccccc2OC)C1c1ccccn1
inactive: [10] 100 % of control | [11] 100 % of control | [12] 100 % of control

OC(C/C(CNNc1ccccc1)=N/Nc1ccccc1)(C(F)(F)F)C(F)(F)F
inactive: [3] 96 % of control | [6] 103 % of control | [9] 92 % of control

C/C(=N\NS(=O)(=O)c1ccccc1)C(C)C
inactive: dose: 75.0 mg/kg/injection, schedule: Q01DX001 (ip), vehicle: saline 101 % of control | dose: 150.0 mg/kg/injection, schedule: Q01DX001 (ip), vehicle: saline 98 % of control | dose: 300.0 mg/kg/injection, schedule: Q01DX001 (ip), vehicle: saline 96 % of control

CC1CN1P(=O)(N1CC=CCC1)N1CC1C (stereo unspecified)
inactive: [10] 109 % of control | [11] 120 % of control | [12] 101 % of control | dose: 400.0 mg/kg/injection, schedule: Q01DX001 (ip), vehicle: saline 91 % of control

CC(=O)c1ccc(N=C2C=CC(=O)O2)cc1
inactive: dose: 100.0 mg/kg/injection, schedule: Q01DX009 (ip), vehicle: saline with Tween-80 104 % of control | dose: 200.0 mg/kg/injection, schedule: Q01DX009 (ip), vehicle: saline with Tween-80 105 % of control | dose: 400.0 mg/kg/injection, schedule: Q01DX009 (ip), vehicle: saline with Tween-80 100 % of control
